Assay results from patent US7910111B2, “Inhibitors of N-ethylmaleimide sensitive factor” (The Johns Hopkins University, priority 2003, dated 2011).
No end group written: not given here.

Columns and labels:
[1] = test system: human aortic endothelial cells (HAEC); details: for effect on thrombin stimulated vWF release: HAEC pre-treated with reagent, thrombin 1 U/ml 1 h; for effect on thrombin induced vWF release, dose response: HAEC pre-treated with increasing amounts, DEA-NONOate 10 min, DETA-NONOate 16 h, SNAP 6 h, NEM 1 h, L-NAME 16 h; for effect of peptide on thrombin induced vWF release: HAEC incubated 20 min with peptide
Procedure: To explore the effect of NO upon granule exocytosis, thrombin induced exocytosis of Weibel-Palade bodies from human aortic endothelial cells (HAEC) which release von Willebrand's Factor (vWF) was studied. HAEC was pre-treated with an NO donor 2-(N,N-diethylamino)-diazenolate-2-oxide (DEA-NONOate) 10 mM or with DEA as a control, stimulated the cells with thrombin 1 U/ml for 1 h, and the amount of vWF released into the media was then measured. […] HAEC was then pre-treated with increasing amounts of various NO donors, including a rapidly releasing NO donor DEA-NONOate for 10 min, a slowly releasing NO donor DETA-NONOate for 16 h, or a nitrosothiol S-nitroso-penicillamine (SNAP) for 6 h; alternatively, cells were treated with NEM for 1 h.
The role of endogenous NO in the regulation of Weibel-Palade body exocytosis was then explored. HAEC was pre-treated with L-NAME for 16 h in order to inhibit endogenous NOS, and then the cells were stimulated with 1 U/ml thrombin for 1 h and vWF release was measured. […] HAEC was next pre-treated with vascular endothelial growth factor (VEGF) in order to activate endogenous NOS3. Cells were incubated with 50 ng/ml VEGF or control for 2 h, and then stimulated with thrombin.
A peptide inhibitor of NSF that crosses cell membranes was designed. This peptide, designated TAT-NSF222, includes the protein transduction domain of HIV TAT (residues 47-57) previously shown to transduce polypeptides into cells (Becker-Hapak et al., 2001), fused to a fragment of NSF (residues 222-243) previously shown to inhibit NSF (Schweizer et al., 1998). […] HAEC were then incubated for 20 min with TAT-NSF222, or with a control peptide TAT-NSF222scr that consisted of the intact TAT domain followed by the amino acid residues of NSF 222-243 in a scrambled order. HAEC were transduced with TAT-NSF peptides, treated with media or thrombin, and the amount of vWF released into the media was measured by ELISA.
Since NSF plays a general role in vesicle trafficking, permanent inactivation of NSF would slow vesicular trafficking in general. However, local production of NO at the plasma membrane and reversible nitrosylation of NSF could provide spatial regulation of NSF.
Human aortic endothelial cells (HAEC) and EGM-2 media were obtained from Clonetics (Walkersville, Md.). HAEC were pre-treated with NO donors, washed, stimulated with 1 U/mil of thrombin, and the amount of vWF released into the media was measured by an ELISA (American Diagnostica, Greenwich, Conn.). HAEC were permeabilized by incubation with 10 U/well of SLO (Sigma) in PBS pH 7.4 for 15 min at 37° C. (Walev et al., 2001). Some cells were incubated with 20-200 μg/ml of antibodies or with 100 μg/ml of recombinant NSF. Cells were then resealed by incubation with EGM-2 media for 4 h at 37° C., washed with EGM-2 media, and stimulated with thrombin as above.
The ability of TAT-NSF to affect exocytosis from cells was investigated. Endothelial cells release vWF by exocytosis when stimulated by thrombin. Accordingly, endothelial cells were incubated with increasing amounts of TAT-NSF peptides for 20 min, then treated with 1 U/ml thrombin, and the amount of vWF released into the media was measured by ELISA.
Human aortic endothelial cells (HAEC) and EGM-2 media were obtained from Clonetics (Walkersville, Md.). HAEC were pre-treated with TAT-NSF peptides for 20 min, washed, stimulated with 1 U/ml of thrombin, and the amount of vWF released into the media was measured by an ELISA (American Diagnostica, Greenwich, Conn.).

[2] = molecular target: T1, recombinant NSF (Cricetulus griseus, UniProt P18708); assay: NSF ATPase assay (coupled colorimetric assay); assay type: biochemical
T1 construct: RGS-(His)6 (N); made in house; host or cells: bacteria
T1 sequence (P18708 whole entry): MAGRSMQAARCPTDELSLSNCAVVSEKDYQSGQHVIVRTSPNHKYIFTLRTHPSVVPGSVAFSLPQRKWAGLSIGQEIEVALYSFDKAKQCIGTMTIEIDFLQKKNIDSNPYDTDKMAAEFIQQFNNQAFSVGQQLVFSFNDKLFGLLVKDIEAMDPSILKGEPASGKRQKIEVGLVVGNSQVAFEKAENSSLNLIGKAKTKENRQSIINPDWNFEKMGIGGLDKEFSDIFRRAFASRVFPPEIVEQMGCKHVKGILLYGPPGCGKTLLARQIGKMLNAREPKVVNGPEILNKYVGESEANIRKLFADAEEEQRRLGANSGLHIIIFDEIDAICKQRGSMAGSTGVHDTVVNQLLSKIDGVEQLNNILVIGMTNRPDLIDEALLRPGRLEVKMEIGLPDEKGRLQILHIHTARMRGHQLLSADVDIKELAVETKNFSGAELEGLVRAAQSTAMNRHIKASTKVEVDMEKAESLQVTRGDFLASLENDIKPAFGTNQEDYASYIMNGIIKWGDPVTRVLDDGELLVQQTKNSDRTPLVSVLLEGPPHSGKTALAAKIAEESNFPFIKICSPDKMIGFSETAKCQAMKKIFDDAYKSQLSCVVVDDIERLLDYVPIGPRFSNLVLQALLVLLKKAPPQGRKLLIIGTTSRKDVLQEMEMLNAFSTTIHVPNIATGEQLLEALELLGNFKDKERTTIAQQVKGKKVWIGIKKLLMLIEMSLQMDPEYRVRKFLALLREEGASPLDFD
Procedure: The effect of NO upon NSF activity was next explored, since NO inhibits Weibel-Palade body exocytosis, and since NSF regulates Weibel-Palade body exocytosis. The effect of NO upon the ATPase activity of NSF was first examined. DEA-NONOate was added to recombinant NSF, and the ATPase activity of NSF was measured.
(§1) The ATPase activity of NSF was measured by a coupled assay, in which ATP utilization is linked to the pyruvate kinase reaction, which generates pyruvate, which in turn is measured continuously with lactate dehydrogenase (Huang and Hackney, 1994). Recombinant NSF (0.2 μg/μl) was pre-treated with buffer or DEA or DEA-NONOate or NEM for 10 min at 22° C. ATPase reaction buffer (100 mM HEPES buffer, pH 7.0, 100 mM KCl, 10 mM MgCl2, 5 mM CaCl2, 10 mM ATP, 5 mM phosphoenol pyruvate, 50 U lactate dehydrogenase, and 50 U pyruvate kinase) was added to the mixture, followed by 10 μl of NADH (2 mg/ml in 1% sodium bicarbonate). The mixture was incubated for 10 min at 22° C., and the absorbance was measured at 340 nm.
The effect of the TAT-NSF peptide inhibitors upon the ability of NSF to hydrolyze ATP was measured. 10 μM TAT-NSF peptides was added to recombinant NSF, and the hydrolysis of ATP was measured. All 5 TAT-NSF peptides inhibited NSF ATPase activity (FIG. 8A). […] The effects of TAT-NSF81 (SEQ ID NO: 6) upon NSF were further defined. TAT-NSF81 (SEQ ID NO: 6) inhibits NSF ATPase activity in a dose-dependent manner with an IC50% between 1-10 μM (FIG. 8B).
as §1, with “TAT-NSF peptides” for “DEA or DEA-NONOate or NEM”

[3] = test system: mice; assay: bleeding time in mice after tail amputation (Example 1); assay type: in vivo; details: intravenous; for effect on bleeding time: tail amputated after 45 min
Procedure: To explore the physiological relevance of NSF regulation of Weibel-Palade body exocytosis, the effect of the NSF inhibitory peptide upon the bleeding time in mice was measured. Anesthetized mice were injected intravenously with saline, TAT-NSF222, or the control peptide TAT-NSF222scr; and after 45 min the distal 5 mm of tail was amputated and the bleeding time measured. […] In fact, 3 of the 6 mice treated with the TAT-NSF222 peptide had bleeding times in excess of 20 min.
Measurement of bleeding time in mice was performed as previously described (Weiss et al., 2002). Mice were anesthetized with an intramuscular injection of ketamine and xylazine, and 5 mm of the distal tip of the tail was amputated. The tail was blotted with filter paper every 5 sec until the paper was no longer stained. If the animals bled for 20 min, the experiment was stopped, and the bleeding time was recorded as 20 min.

[4] = molecular target: T2, NSF disassembly of the SNARE complex (Cricetulus griseus, UniProt P18708); assay type: biochemical; details: recombinant NSF, α-SNAP, GST-SNAREs, ATP; TAT-NSF peptides 1 μM in Example 2
T2 construct: made in house; host or cells: bacteria (NSF, alpha-SNAP); BL21 cells (GST-SNAREs)
T2 sequence (P18708 whole entry): as above
T2 sequence (P81125 whole entry partner): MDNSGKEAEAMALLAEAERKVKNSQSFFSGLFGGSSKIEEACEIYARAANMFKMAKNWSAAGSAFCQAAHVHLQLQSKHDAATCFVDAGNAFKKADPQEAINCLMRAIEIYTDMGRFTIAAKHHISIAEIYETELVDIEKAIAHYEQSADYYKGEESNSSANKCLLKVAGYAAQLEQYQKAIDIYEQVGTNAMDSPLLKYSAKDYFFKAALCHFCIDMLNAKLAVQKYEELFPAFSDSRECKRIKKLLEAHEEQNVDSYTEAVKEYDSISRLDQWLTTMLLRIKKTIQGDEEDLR
T2 sequence (Q12846 whole entry partner): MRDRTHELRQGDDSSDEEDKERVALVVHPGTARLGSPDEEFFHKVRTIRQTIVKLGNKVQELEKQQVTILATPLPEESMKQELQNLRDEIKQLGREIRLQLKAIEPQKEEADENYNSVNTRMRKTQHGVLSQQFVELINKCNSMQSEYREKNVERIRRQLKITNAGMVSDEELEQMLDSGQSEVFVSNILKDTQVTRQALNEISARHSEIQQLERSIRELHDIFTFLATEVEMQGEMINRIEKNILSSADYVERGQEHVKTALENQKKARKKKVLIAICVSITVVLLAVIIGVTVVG
T2 sequence (Q15836 whole entry partner): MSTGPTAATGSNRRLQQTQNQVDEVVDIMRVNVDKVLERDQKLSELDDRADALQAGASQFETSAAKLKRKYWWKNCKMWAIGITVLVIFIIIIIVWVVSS
T2 sequence (O00161 whole entry partner): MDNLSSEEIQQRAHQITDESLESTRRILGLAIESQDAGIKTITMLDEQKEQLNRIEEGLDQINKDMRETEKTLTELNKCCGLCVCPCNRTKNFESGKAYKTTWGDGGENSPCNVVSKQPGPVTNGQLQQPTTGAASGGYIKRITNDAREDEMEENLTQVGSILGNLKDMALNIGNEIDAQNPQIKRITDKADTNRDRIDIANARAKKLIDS
Procedure: Accordingly, recombinant NSF was pre-treated with the NO donor DEA-NONOate 1 mM for 10 min. Pre-treated NSF, α-SNAP, and detergent extracts of HAEC membranes were then mixed in the presence of 0.5 mM ATP or ATP-γS. These reactions were then fractionated by sucrose density gradient ultracentrifugation, fractions were collected from the bottom of the tube, and immunoblotted with antibody to syntaxin-4.
The effect of NO upon NSF disassembly of purified, recombinant SNARE molecules was next examined. Recombinant (His)6-NSF was pre-treated or not with 1 mM DEA-NONOate for 10 min, and then mixed with and (His)6-a-SNAP and recombinant SNARE fusion polypeptides identified in endothelial cells: GST-syntaxin-4, VAMP-3, and SNAP-23. ATP or ATP-γS was added, the mixture was precipitated with glutathione-sepharose beads, and precipitated proteins were fractionated by SDS-PAGE and immunoblotted with antibody to the NSF tag.
The disassembly activity of NSF was measured by a co-precipitation assay (Pevsner et al., 1994). […] This mixture of NSF and SNARE polypeptides was then incubated in binding buffer (4 mM HEPES pH 7.4, 0.1M NaCl, 1 mM EDTA, 3.5 mM CaCl2, 3.5 mM MgCl2, and 0.5% Nonidet P-40) and glutathione-sepharose beads for 1 h at 4° C. with rotation. The beads were washed with binding buffer 4 times, mixed with SDS-PAGE sample buffer, boiled for 3 min, and analyzed by immunoblotting.
The effect of the TAT-NSF peptide inhibitors upon the ability of NSF to separate from SNARE complexes was measured. Recombinant NSF was pre-treated with 1 μM TAT-NSF peptides, and recombinant GST-SNARE polypeptides were then added, including syntaxin-4, SNAP-23, and VAMP-3. […]
The effect of TAT-NSF peptides on NSF disassembly activity was determined. […]
TAT-NSF81 (SEQ ID NO: 6) inhibition of NSF disassembly activity was also investigated. […] ATP was added, GST-SNAREs were precipitated with glutathione-sepharose, and the precipitant was analyzed for the co-precipitation of NSF.
The disassembly activity of NSF was measured by a co-precipitation assay (Pevsner et al., 1994). […]

[5] = test system: mice; assay: platelet adherence to mesenteric venules in mice (intravital microscopy); assay type: in vivo
Procedure: To further examine the physiological relevance of NO regulation of Weibel-Palade body exocytosis, the effect of endogenous NO upon platelet interactions with endothelial cells in vivo was measured. Platelet rolling, or transient adherence of platelets to the walls of blood vessels, is mediated by vWF released by exocytosis (Andre et al., 2000). Inhibition of endogenous NO synthesis might permit an increase in Weibel-Palade body exocytosis, an increase in released vWF, and an increase in platelet adherence to venule walls. […] Intravital microscopy was next employed to explore the effects of endogenous NO upon platelet rolling in vivo. Anesthetized mice were pre-treated or not with L-NAME, and then transfused with calcein-AM labeled platelets. The mesentery was externalized, superfused with histamine, and intravital microscopy was used to record interactions of fluorescently labeled platelets with mesenteric venules. Platelets were classified as adherent if they were transiently captured by the endothelium and then translocated in a stop-and-go fashion for a minimum of 2 seconds. […]
Measurements of platelet adherence in mice was adapted from Andre et al. (Andre et al., 2000). […] Platelet adherence was expressed as the number of adhering fluorescent cells per square millimeter of venular surface, calculated from the diameter and length of segment viewed.

[6] = test system: mice; assay: myocardial infarction (coronary ligation/reperfusion) in mice; assay type: in vivo
Procedure: The ability of the fusion peptides of the present invention to impact cardiac infraction was investigated. Mice were pre-treated intravenously with vehicle or 5 ug/mouse TAT-NSF700 (SEQ ID NO: 8) peptide 15 min prior to infarction. Myocardial infarctions were created in mice by ligation of the left anterior descending coronary artery. Myocardial ischemia was maintained for 35 minutes, and then the ligation of the coronary artery was released, and reperfusion continued for 24 h.
The mice were then sacrificed and the size of the myocardial infarction was quantitated as previously done (Jones S P, Greer J J, Kakkar A K, Ware P D, Turnage R H, Hicks M, van Haperen R, de Crom R, Kawashima S, Yokoyama M, Lefer D J. Am J Physiol Heart Circ Physiol. 2004 January; 286(1):H276-82. Epub 2003 Sep. 11.). The area at risk (AAR) was measured with Evans blue dye, the left ventricle (LV) area was measured by planimetery, and the infarct area (INF) was measured with TTC staining. There were 7 mice per group.

Compound: CC(=N)NCc1cccc(CN)c1 [1400W]
- effect on thrombin stimulated vWF release [1]: had no effect

Compound: NCCN(CCN)/[N+]([O-])=N/O [DETA-NONOate, dithylenetriamine (DETA)-NONOate]
- effect on thrombin induced vWF release, dose response [1]: inhibits thrombin induced vWF release

Compound: YGRKKRRQRRR-GGG-GLDKEFNSIFRRAFASRVFPPE (YGRKKRRQRRRGGGGLDKEFNSIFRRAFASRVFPPE; fusion peptide) [TAT-NSF222]
- effect of peptide on thrombin induced vWF release [1]: inhibits vWF release in a dose-dependent manner
- effect on NSF ATPase activity ([2]; recombinant NSF): inhibits both NSF ATPase activity
- mice with bleeding times in excess of 20 min ([3]; 45 min): 3 of the 6
- effect on bleeding time [3]: dramatically prolongs the bleeding time
- effect on NSF disassembly activity [4]: also NSF disassembly activity

Compound: YGRKKRRQRRRGGGALYSFDKAKQCIGTMTIEID [TAT-NSF81]
- IC50 ([1]; read-out: IC50% for inhibition of endothelial exocytosis (vWF release), HAEC, 20 min pre-treatment, thrombin 1 U/ml): 1 to 10 µM
- IC50 [2]: 1 to 10 µM

Compound: COC(=O)[C@@H](N)CCCNC(=N)N[N+](=O)[O-] [L-NAME, L-nitroarginine-methyl-ester]
- histamine induced platelet interactions with the venule wall, frequency vs non-treated mice ([5]; 5 mg/kg L-NAME intravenously, histamine superfusion): more than double
- time of peak platelet-venule interactions after histamine treatment ([5]; L-NAME pre-treated): 6 min
- effect on thrombin induced vWF release, dose response [1]: increases thrombin stimulated vWF release in a dose-dependent manner
- effect on thrombin stimulated vWF release [1]: increases the amount of vWF released
- effect on VEGF inhibition of thrombin stimulated vWF release ([1]; L-NAME 1 mM, VEGF 50 ng/ml 2 h): blocks the effects of VEGF treatment

Compound: vascular endothelial growth factor [VEGF]
- effect on thrombin stimulated vWF release [1]: decreases thrombin stimulated vWF release

Compound: CCN1C(=O)C=CC1=O [NEM]
- effect on thrombin induced vWF release, dose response [1]: inhibits thrombin induced vWF release

Compound: YGRKKRRQRRR-GGG-ENSFRFLADIFPAKAFPVRFE (YGRKKRRQRRRGGGENSFRFLADIFPAKAFPVRFE; fusion peptide) [TAT-NSF222scr]
- effect on bleeding time [3]: has no effect upon bleeding time

Compound: YGRKKRRQRRR-GGG-LLDYVPIGPRFSNLVLQALLVL (YGRKKRRQRRRGGGLLDYVPIGPRFSNLVLQALLVL; fusion peptide) [TAT-NSF700]
- effect of peptide on thrombin induced vWF release [1]: most effective at inhibiting release of vWF
- effect on NSF ATPase activity at 10 μM peptide ([2]; 10 μM TAT-NSF peptides, recombinant NSF): more effective than the other peptides
- size of the infarct ([6]; mice, 5 ug/mouse i.v. 15 min prior to infarction, 35 min ischemia, 24 h reperfusion): 44%+/−3
- absolute reduction in infarct size ([6]; vs vehicle treated mice): 12%
- relative reduction in infarct size ([6]; vs vehicle treated mice): 21%
